Literature values in US9597342B2 (UWM Research Foundation, Inc., priority 2011, dated 2017).

Target: all four diazepam-sensitive GABAA receptors
Settings: Huang et al., J. Med. Chem. 2000; cited from earlier work

Structure (SMILES): CN1C(=O)CN=C(c2ccccc2)c2cc(Cl)ccc21 [diazepam]
- Ki: < 25 nM
